Test results: PubChem BioAssay AID1919000 (Molecular Pharmacology Branch, DTP, NCI, 2023)

Tested on: 653999-131-R-J2-PDC complex spheroids, growth % test/control
Test: Anticancer human tumor 653999-131-R-J2-PDC patient-derived lung adenocarcinoma cell line growth inhibition [AhR]
Details: for IC50: curve of first compound; for viability, T/C: stronger effect = lower value; active means viability on the fitted dose curve at most 10% of control; inactive means the rest
Summary of the method: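 Spheroids combined tumor cells with HUVEC endothelial cells and human MSCs as stroma. AhR antagonists were paired with standard or investigational drugs, each dosed in half-log steps down from near clinical Cmax, or from 10 microM where Cmax was unknown.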

[1] = second compound 0.1 µM, first compound 0.0316 µM
[2] = second compound 0.1 µM, first compound 0.1 µM
[3] = second compound 0.1 µM, first compound 0.316 µM
[4] = second compound 0.1 µM, first compound 1 µM
[5] = second compound 0.1 µM, first compound 3.16 µM
[6] = second compound 0.1 µM, first compound 10 µM
[7] = second compound 0.316 µM, first compound 0.0316 µM
[8] = second compound 0.316 µM, first compound 0.1 µM
[9] = second compound 0.316 µM, first compound 0.316 µM
[10] = second compound 0.316 µM, first compound 1 µM
[11] = second compound 0.316 µM, first compound 3.16 µM
[12] = second compound 0.316 µM, first compound 10 µM
[13] = second compound 1 µM, first compound 0.0316 µM
[14] = second compound 1 µM, first compound 0.1 µM
[15] = second compound 1 µM, first compound 0.316 µM
[16] = second compound 1 µM, first compound 1 µM
[17] = second compound 1 µM, first compound 3.16 µM
[18] = second compound 1 µM, first compound 10 µM
[19] = second compound 3.16 µM, first compound 0.0316 µM
[20] = second compound 3.16 µM, first compound 0.1 µM
[21] = second compound 3.16 µM, first compound 0.316 µM
[22] = second compound 3.16 µM, first compound 1 µM
[23] = second compound 3.16 µM, first compound 3.16 µM
[24] = second compound 3.16 µM, first compound 10 µM
[25] = second compound 10 µM, first compound 0.0316 µM
[26] = second compound 10 µM, first compound 0.1 µM
[27] = second compound 10 µM, first compound 0.316 µM
[28] = second compound 10 µM, first compound 1 µM
[29] = second compound 10 µM, first compound 3.16 µM
[30] = second compound 10 µM, first compound 10 µM
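Further: spheroids exposed to agents for seven days.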
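Wherever viability, T/C is given: 100% = DMSO vehicle control viability.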

COc1ccc([C@@H](O)c2cc(-c3ncnc4cc(N5CCOCC5)ccc34)c(F)cc2Cl)nn1 + Cc1cncc(-c2nc(NCCc3c[nH]c4ccccc34)c3ncn(C(C)C)c3n2)c1
> 10 µM: IC50 (second compound 0.316 µM) | IC50 (second compound 1 µM) | IC50 (second compound 3.16 µM) | IC50 (second compound 10 µM)
8.89 µM: IC50 (second compound 0.1 µM)
inactive: viability, T/C [1] 97.7% | viability, T/C [2] 121% | viability, T/C [3] 103% | viability, T/C [4] 82.4% | viability, T/C [5] 72.5% | viability, T/C [6] 46.7% | viability, T/C [7] 121% | viability, T/C [8] 122% | viability, T/C [9] 102% | viability, T/C [10] 99.9% | viability, T/C [11] 73% | viability, T/C [12] 54.4% | viability, T/C [13] 116% | viability, T/C [14] 123% | viability, T/C [15] 122% | viability, T/C [16] 101% | viability, T/C [17] 87.8% | viability, T/C [18] 61% | viability, T/C [19] 125% | viability, T/C [20] 119% | viability, T/C [21] 138% | viability, T/C [22] 93% | viability, T/C [23] 83.3% | viability, T/C [24] 60.5% | viability, T/C [25] 55.7% | viability, T/C [26] 58.9% | viability, T/C [27] 66.2% | viability, T/C [28] 65.7% | viability, T/C [29] 66.3% | viability, T/C [30] 55.5%

CCc1c2c(nc3ccc(O)cc13)-c1cc3c(c(=O)n1C2)COC(=O)[C@]3(O)CC + Cc1ccccc1N=Nc1ccc(NC(=O)c2ccnn2C)c(C)c1
0.00966 µM: IC50 (second compound 1 µM)
0.0115 µM: IC50 (second compound 0.1 µM)
0.0109 µM: IC50 (second compound 0.316 µM)
inactive: viability, T/C (second compound 0.1 µM, first compound 0.000949 µM) 94.8% | viability, T/C (second compound 0.1 µM, first compound 0.003 µM) 76.6% | viability, T/C (second compound 0.1 µM, first compound 0.00949 µM) 51% | viability, T/C (second compound 0.1 µM, first compound 0.03 µM) 34.7% | viability, T/C (second compound 0.1 µM, first compound 0.0949 µM) 29.7% | viability, T/C (second compound 0.1 µM, first compound 0.3 µM) 17.4% | viability, T/C (second compound 0.316 µM, first compound 0.000949 µM) 88% | viability, T/C (second compound 0.316 µM, first compound 0.003 µM) 80.6% | viability, T/C (second compound 0.316 µM, first compound 0.00949 µM) 49.7% | viability, T/C (second compound 0.316 µM, first compound 0.03 µM) 32.9% | viability, T/C (second compound 0.316 µM, first compound 0.0949 µM) 30.1% | viability, T/C (second compound 0.316 µM, first compound 0.3 µM) 17.7% | viability, T/C (second compound 1 µM, first compound 0.000949 µM) 85.6% | viability, T/C (second compound 1 µM, first compound 0.003 µM) 72.6% | viability, T/C (second compound 1 µM, first compound 0.00949 µM) 46% | viability, T/C (second compound 1 µM, first compound 0.03 µM) 37.3% | viability, T/C (second compound 1 µM, first compound 0.0949 µM) 25.4% | viability, T/C (second compound 1 µM, first compound 0.3 µM) 19.2% | viability, T/C (second compound 3.16 µM, first compound 0.000949 µM) 81.3% | viability, T/C (second compound 3.16 µM, first compound 0.003 µM) 65% | viability, T/C (second compound 3.16 µM, first compound 0.00949 µM) 51.3% | viability, T/C (second compound 3.16 µM, first compound 0.03 µM) 32.5% | viability, T/C (second compound 3.16 µM, first compound 0.0949 µM) 25.2% | viability, T/C (second compound 3.16 µM, first compound 0.3 µM) 14.7% | viability, T/C (second compound 10 µM, first compound 0.000949 µM) 73.6% | viability, T/C (second compound 10 µM, first compound 0.003 µM) 62.2% | viability, T/C (second compound 10 µM, first compound 0.00949 µM) 49.7% | viability, T/C (second compound 10 µM, first compound 0.03 µM) 41% | viability, T/C (second compound 10 µM, first compound 0.0949 µM) 27.5% | viability, T/C (second compound 10 µM, first compound 0.3 µM) 18.4%
0.00918 µM: IC50 (second compound 3.16 µM)
0.0102 µM: IC50 (second compound 10 µM)

COc1cc(Nc2ncc3c(n2)-c2ccc(Cl)cc2C(c2c(F)cccc2OC)=NC3)ccc1C(=O)O + Cc1ccccc1N=Nc1ccc(NC(=O)c2ccnn2C)c(C)c1
inactive: viability, T/C [1] 87.8% | viability, T/C [2] 74.9% | viability, T/C [3] 71.1% | viability, T/C [4] 58.2% | viability, T/C [5] 57.1% | viability, T/C [6] 64.3% | viability, T/C [7] 93.4% | viability, T/C [8] 70.9% | viability, T/C [9] 71.9% | viability, T/C [10] 67.3% | viability, T/C [11] 57.9% | viability, T/C [12] 60.1% | viability, T/C [13] 81% | viability, T/C [14] 74% | viability, T/C [15] 66.8% | viability, T/C [16] 62.2% | viability, T/C [17] 60.6% | viability, T/C [18] 53.8% | viability, T/C [19] 83% | viability, T/C [20] 62.8% | viability, T/C [21] 70.5% | viability, T/C [22] 61.2% | viability, T/C [23] 62.9% | viability, T/C [24] 54.6% | viability, T/C [25] 80.2% | viability, T/C [26] 66.9% | viability, T/C [27] 63.2% | viability, T/C [28] 71% | viability, T/C [29] 56.5% | viability, T/C [30] 54.4%
> 10 µM: IC50 (second compound 0.1 µM) | IC50 (second compound 0.316 µM) | IC50 (second compound 1 µM) | IC50 (second compound 3.16 µM) | IC50 (second compound 10 µM)

CC1COCCN1c1cc(C2(S(C)(=N)=O)CC2)nc(-c2ccnc3[nH]ccc23)n1 (stereo not given) + Cc1cncc(-c2nc(NCCc3c[nH]c4ccccc34)c3ncn(C(C)C)c3n2)c1
2.7 µM: IC50 (second compound 10 µM)
> 10 µM: IC50 (second compound 1 µM)
8.43 µM: IC50 (second compound 0.1 µM)
9.8 µM: IC50 (second compound 3.16 µM)
9.85 µM: IC50 (second compound 0.316 µM)
inactive: viability, T/C [1] 105% | viability, T/C [2] 102% | viability, T/C [3] 94.7% | viability, T/C [4] 104% | viability, T/C [5] 86.1% | viability, T/C [6] 43.7% | viability, T/C [7] 103% | viability, T/C [8] 111% | viability, T/C [9] 108% | viability, T/C [10] 94.8% | viability, T/C [11] 82% | viability, T/C [12] 49.5% | viability, T/C [13] 107% | viability, T/C [14] 110% | viability, T/C [15] 124% | viability, T/C [16] 104% | viability, T/C [17] 87.1% | viability, T/C [18] 55.1% | viability, T/C [19] 101% | viability, T/C [20] 111% | viability, T/C [21] 112% | viability, T/C [22] 99% | viability, T/C [23] 85% | viability, T/C [24] 49.2% | viability, T/C [25] 71.4% | viability, T/C [26] 70.6% | viability, T/C [27] 64.5% | viability, T/C [28] 56.1% | viability, T/C [29] 49.6% | viability, T/C [30] 44.2%

Nc1ccn(C2OC(CO)C(O)C2(F)F)c(=O)n1 (stereo not given) + Cc1ccccc1N=Nc1ccc(NC(=O)c2ccnn2C)c(C)c1
0.371 µM: IC50 (second compound 0.316 µM)
0.94 µM: IC50 (second compound 1 µM)
0.532 µM: IC50 (second compound 0.1 µM)
2.96 µM: IC50 (second compound 10 µM)
inactive: viability, T/C [1] 64.2% | viability, T/C [2] 65% | viability, T/C [3] 49.3% | viability, T/C [4] 44.9% | viability, T/C [5] 42.9% | viability, T/C [6] 34.2% | viability, T/C [7] 70.6% | viability, T/C [8] 60.9% | viability, T/C [9] 52.8% | viability, T/C [10] 39.8% | viability, T/C [11] 43.5% | viability, T/C [12] 36.8% | viability, T/C [13] 69.2% | viability, T/C [14] 66.4% | viability, T/C [15] 60.5% | viability, T/C [16] 44.4% | viability, T/C [17] 43.5% | viability, T/C [18] 36% | viability, T/C [19] 72.5% | viability, T/C [20] 62.4% | viability, T/C [21] 51.5% | viability, T/C [22] 44.9% | viability, T/C [23] 42.1% | viability, T/C [24] 38.7% | viability, T/C [25] 66.8% | viability, T/C [26] 65.5% | viability, T/C [27] 65.2% | viability, T/C [28] 50.3% | viability, T/C [29] 46.1% | viability, T/C [30] 48.5%
0.454 µM: IC50 (second compound 3.16 µM)

CC(C)c1c(-c2ccccc2)nc2c(C#N)c[nH]n2c1=O + Cc1cncc(-c2nc(NCCc3c[nH]c4ccccc34)c3ncn(C(C)C)c3n2)c1
> 10 µM: IC50 (second compound 0.1 µM) | IC50 (second compound 0.316 µM) | IC50 (second compound 1 µM) | IC50 (second compound 3.16 µM) | IC50 (second compound 10 µM)
inactive: viability, T/C [1] 112% | viability, T/C [2] 99.8% | viability, T/C [3] 102% | viability, T/C [4] 95.8% | viability, T/C [5] 93.9% | viability, T/C [6] 102% | viability, T/C [7] 115% | viability, T/C [8] 114% | viability, T/C [9] 120% | viability, T/C [10] 104% | viability, T/C [11] 97.7% | viability, T/C [12] 99.2% | viability, T/C [13] 128% | viability, T/C [14] 118% | viability, T/C [15] 122% | viability, T/C [16] 136% | viability, T/C [17] 125% | viability, T/C [18] 116% | viability, T/C [19] 128% | viability, T/C [20] 117% | viability, T/C [21] 121% | viability, T/C [22] 115% | viability, T/C [23] 129% | viability, T/C [24] 120% | viability, T/C [25] 63.2% | viability, T/C [26] 58.8% | viability, T/C [27] 62.6% | viability, T/C [28] 63.7% | viability, T/C [29] 62.2% | viability, T/C [30] 63.7%
